The compounds below were run on HEK293T-Rex ERSE-FLuc (assay: EC50 for ERSE-FLuc reporter activation). Settings: 18 h.
Experimental: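 Dose-response of hit compounds in HEK293T-Rex cells stably expressing ERSE-FLuc or XBP1-RLuc reporters, 18 hr treatment, 1536-well; luminescence normalised to 500 nM thapsigargin (100%) and DMSO (0%), fitted to give EC50 (M) and maximal activation; '>' marks EC50 above the top tested dose (~17 µM).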

SMILES | EC50 for ERSE-FLuc reporter activation [µM]
O=C(NC(c1ccccc1)c1ccccc1)c1csc(-c2cnccn2)n1 | > 16.9
O=[N+]([O-])c1ccc(N/N=C/c2ccccc2O)cc1 | > 16.9
O=C(N/N=C/c1ccc2c(c1)OCO2)c1cccc(F)c1 | > 16.9
COc1ccc2oc(=Nc3cc(F)ccc3F)c(C(N)=O)cc2c1 | > 14.7
CCCc1cc(C(=O)Nc2cc(C)ccc2O)no1 | 2.84
O=C1/C(=C/c2ccc(O)c(O)c2)SC(=S)N1c1ccc(O)cc1 | 12.4
Cc1ccc(C(=O)Nc2ccccc2N)cc1 | 4.27
O=[N+]([O-])c1ccc2nc(/C=C/c3ccccc3)[nH]c2c1 | > 16.9
Cc1ccc(O)c(-c2cc(-c3ccc(F)cc3)n[nH]2)c1 | 10.5
CC(C)c1ccc(NC(=O)/C=C/c2ccco2)cc1 | > 17.2
Nc1nc(Nc2ccc(Cl)cc2)nc2ccccc12 | 9.57
O=c1[nH]c(/C=C2\C=Nc3ccccc32)c(O)n1-c1ccc(Cl)cc1 | > 16.9
O=C(Nc1ccc(Cl)cn1)c1ccc(Cl)cc1Cl | > 15.2
O=C(CCCN1CCC2(CC1)C(=O)NCN2c1ccccc1)c1ccc(F)cc1 | 7.34
O=C(Nc1nc2c(s1)CCCC2)c1cccc2ccccc12 | > 18.2
COc1ccc(-c2nn(-c3ccccc3)cc2/C=C/C(=O)O)cc1[N+](=O)[O-] | > 18.5
Nc1ccc2nc(-c3ccccn3)[nH]c2c1 | > 16.9
COC(=O)c1ccc(C(=O)Nc2ccccc2N)cc1 | 9.08
CCOc1cc(/C=C2/NC(=O)N(c3cccc(Cl)c3)C2=O)ccc1O | > 16.9
Cc1cnc(NC(=O)c2sc3nc4c(C)cccc4cc3c2N)s1 | 11.5
Cc1ccc(O)c(NC(=O)c2cc(-c3ccco3)on2)c1 | 4.85
OCCNc1nc(Nc2ccc(Cl)c(Cl)c2)nc2ccccc12 | 4.13
Cc1cc(C)nc(/N=C(\N)Nc2ccc(OCc3ccc(Cl)cc3)cc2)n1 | > 14
c1ccc2cc(-c3cnnc(N4CCOCC4)n3)ccc2c1 | > 16.9

SMILES | EC50 for ERSE-FLuc reporter activation [µM]
Cn1c(-c2cccc(Cl)c2)cnc1NC(=O)c1ccccc1 | > 16.9
Cc1ccc(NC(=O)/C=C/c2ccco2)nc1 | > 16.9
C(=C\c1ccccc1)/C=N/Nc1nc2ccccc2[nH]1 | > 18
Cc1cc(C)nc(/N=C(\N)Nc2ccc(OCc3ccccc3)cc2)n1 | > 14.6
CC(=O)Oc1ccc2cc(NC(=O)c3ccc(C)cc3)c(=O)oc2c1 | > 15.1
Nc1ccccc1NC(=O)c1ccc(Cl)cc1 | 7.9
Cc1ccc(O)c(-c2cc(-c3cccs3)[nH]n2)c1 | 8.75
CN(C)c1ccc(-c2nc3ccc(N)cc3[nH]2)cc1 | > 15.6
Cc1cc(C)c2nc3sc(C(=O)N4CCCCC4)c(N)c3cc2c1 | > 16.9
COc1ccc(/C=C/c2ccc3cccc(OC(C)=O)c3n2)cc1OC(C)=O | > 16.9
O=C(N/N=C/c1ccc(O)c(O)c1)c1cccc(Cl)c1 | 13.6
O=C(NCCCn1ccnc1)c1cc(-c2cccs2)on1 | 9.58
N#C/C(=C\c1ccc(O)c(O)c1)c1nc2ccccc2[nH]1 | > 16.9
Cc1cccc2c1[nH]c1nc(N/N=C\c3c[nH]c4ccccc34)nnc12 | > 16.9
CC(=O)c1cccc(Nc2nc(-c3ccc(O)c(O)c3)cs2)c1 | 9.07
Nc1nc(Nc2ccc(Cl)c(Cl)c2)nc2ccccc12 | 7.93
Cc1ccc(NC(=S)NC(=O)C(=O)Nc2ccccc2)cc1 | > 16.9
C=CCNC(=O)c1sc2nc3cc(C)c(C)cc3cc2c1N | > 16.9
N#CC1=C(N)Oc2c(ccc3ccccc23)C1c1ccccc1 (stereo unspecified) | > 16.9
COc1ccc(/C=C2\SC(=O)NC2=Nc2ccc(C)cc2)c(OC)c1 | > 13
COc1ccc(/C=N/NC(=O)c2cccc(F)c2)cc1Br | > 16.9
COc1cccc(-c2cc(C(=O)Nc3cc(C)ccc3O)on2)c1 | 8.72
OCCNc1nc(Nc2ccc(Br)cc2)nc2ccccc12 | 4.93
O=C(Nc1ccccc1O)c1ccc(C(=O)c2ccccc2)cc1 | 7.47

SMILES | EC50 for ERSE-FLuc reporter activation [µM]
Oc1ccc(-c2csc3nc(-c4ccccc4)nn23)c(O)c1 | > 16.9
CCCCCCc1ccc(-c2ncc(N)cn2)cc1 | 5.65
O=[N+]([O-])c1ccccc1NC(=S)N/N=C/c1ccc(O)c(O)c1 | > 18.3
O=C(N/N=C\C(Br)=C\c1ccccc1)c1n[nH]c2c1CCCC2 | > 16.9
Nc1ccc(-c2nc3cc(N)c(Cl)cc3[nH]2)cc1 | > 14.7
C=CCNC(=O)c1cc(-c2ccccc2)on1 | 7.45
Nc1ccc2nc(-c3ccc(Cl)cc3)[nH]c2c1 | > 5.63
Nc1ccc2nc(/C=C/c3ccco3)[nH]c2c1 | > 16.9
COc1ccc(-c2cc(C(=O)Nc3cc(C)ccc3O)on2)cc1OC | > 16.9
O=C(Nc1ccc2nc(NC(=O)C3CCCCC3)sc2c1)C1CCCCC1 | > 10.2
N#Cc1c(NC(=O)c2ccc3c(c2)OCO3)sc2c1CCCC2 | > 16.9
Cc1cc2nc(-c3ccc(SCC#N)nc3)[nH]c2cc1C | > 16.9
O=C(CC(=O)Nc1ccc2nc3n(c(=O)c2c1)CCCCC3)NCc1ccco1 | 8.59
COc1ccc(/C=N/c2sc3c(c2C(N)=O)CCCC3)cc1 | > 16.9
COc1ccccc1-c1cnnc(N/N=C/c2c[nH]c3ccccc23)n1 | > 16.9
Nc1c(C(=O)Nc2ccccc2)sc2nc3c(cc12)CCCCC3 | > 16.5
Cc1ccc(O)c(NC(=O)c2cc(-c3cccs3)on2)c1 | 2.78
COc1ccc(N(C(=O)c2ccccc2)S(=O)(=O)c2cc(OC)ccc2OC)cc1 | 6.69
Oc1ccccc1/C=N\Nc1nc2ccccc2o1 | > 17.3
Cc1ccn2cc(-c3ccc(O)c(O)c3)nc2c1 | > 20.3
O=C(Nc1ccc2c(c1)OCCO2)C(=O)Nc1ccccc1Cl | > 16.9
Cc1ccc(O)c(NC(=O)c2cc(C(C)C)on2)c1 | > 16.9
Oc1ccc(/C=N/Nc2cccc3cccnc23)c(O)c1 | > 16.9

Source: the supplement of paper PMC4954754
